Source: patent US7652020B2, “Compounds for the treatment of inflammatory disorders” (Schering Corporation, priority 2004, dated 2010)
Like-named read-outs stand apart in the source and are kept apart here.

Target: T1, purified catalytic domain of recombinant human TACE (rhTACEc) (Homo sapiens, UniProt P78536, N452Q/S266A)
T1 construct: Residue 215 to 477 with two mutation (S266A and N452Q) and a 6×His tail; 6xHis (C); made in house; host or cells: baculovirus/Hi5 insect cells
Assay: TACE kinetic assay: cleavage of internally quenched peptide substrate SPDL-3, fluorescence
Type: biochemical
Settings: read-out: Ki
Description: TACE activity is determined by a kinetic assay measuring the rate of increase in fluorescent intensity generated by TACE catalyzed cleavage of an internally quenched peptide substrate (SPDL-3). […] It is purified from the baculovirus/Hi5 cells expression system using affinity chromatography. […] MCA is (7-Methoxycoumarin-4-yl)acetyl. Dpa is N-3-(2,4-Dinitrophenyl)-L-2,3-diaminopropionyl.
A 50 μl assay mixture contains 20 mM HEPES, pH 7.3, 5 mM CaCl2, 100 μM ZnCl2, 2% DMSO, 0.04% Methylcellulose, 30 μM SPDL-3, 70 pM rhTACEc and a test compound. RhTACEc is pre-incubated with the testing compound for 90 min. at 25° C. Reaction is started by addition of the substrate. […] Rate of enzymatic reaction is shown as Units per second. Effect of a test compound is shown as % of TACE activity in the absence of the compound.

[1] = TACE inhibitory activity, class symbols
[2] = TACE, representative compounds, numeric values

T1 sequence (P78536 215-477 S266A/N452Q): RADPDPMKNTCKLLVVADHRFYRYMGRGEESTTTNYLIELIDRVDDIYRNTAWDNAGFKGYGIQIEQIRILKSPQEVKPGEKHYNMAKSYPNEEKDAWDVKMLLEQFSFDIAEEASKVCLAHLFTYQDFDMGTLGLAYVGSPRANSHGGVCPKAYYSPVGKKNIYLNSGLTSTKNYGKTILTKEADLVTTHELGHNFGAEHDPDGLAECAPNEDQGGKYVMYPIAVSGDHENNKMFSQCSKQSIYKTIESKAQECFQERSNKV

Row | Structure (SMILES) | Ki [1] | Ki [2]
1 | Cn1c(-c2ccccc2)cnc1[C@H](O)[C@@H](O)C(=O)NCC1CCN(c2ccc(F)cc2C#N)CC1 [Compound 2402] | > 1000 nM | –
2 | C[C@@H](NC(=O)[C@H](O)[C@@H](O)C(=O)N1C2CCC1c1cncnc1C2)c1ccc(-n2cccn2)cc1 (some centres unmarked) [Compound 2093] | > 1000 nM | –
3 | C[C@@H](NC(=O)[C@H](O)[C@@H](O)C(=O)N1CC(C)(C)CC1(C)C)c1ccc(-n2cccn2)cc1 [Compound 2254] | 100 to 1000 nM | –
4 | C[C@H]1CN(c2ccccc2C#N)CCC1CNC(=O)[C@H](O)[C@@H](O)C(=O)N1CCC[C@@H]1c1ccccc1 (some centres unmarked) [Compound 2145] | 100 to 1000 nM | –
5 | C[C@@H](NC(=O)[C@H](O)[C@@H](O)C(=O)N1CC2CC1CN2c1ccc(Cl)cc1)c1ccc(-n2cccn2)cc1 (some centres unmarked) [Compound 2419] | 100 to 1000 nM | –
6 | C[C@@H](NC(=O)[C@H](O)[C@@H](O)C(=O)N1CCN2CCC[C@H]2C1)c1ccc(-n2cccn2)cc1 [Compound 2420] | 100 to 1000 nM | –
7 | Cn1c(Br)cnc1[C@H](O)[C@@H](O)C(=O)NCC1CCN(c2ccc(F)cc2C#N)CC1 [Compound 2372] | > 1000 nM | –
8 | CNc1nc([C@H]2CCCN2C(=O)[C@H](O)[C@@H](O)C(=O)N[C@H](C)c2ccc(-n3cccn3)cc2)c(C#N)s1 [drawing 1316] | – | 2 nM
9 | Cc1nc2ccccc2n1Cc1csc(CNC(=O)[C@H](O)[C@@H](O)C(=O)N2CCCC2c2cccc(N(C)C)c2)n1 (some centres unmarked) | – | 1 nM
10 | C[C@@H](NC(=O)[C@H](O)[C@@H](O)C(=O)N1CC(C)(C)CC1c1cccc(Cl)c1)c1ccc(-n2cccn2)cc1 (some centres unmarked) [Compound 2237] | 100 to 1000 nM | –
11 | CCOC(=O)c1ccccc1-c1ccc(CNC(=O)[C@H](O)[C@@H](O)C(=O)N2CCC[C@@H]2c2ccccc2)cc1 | – | 3.6 nM
12 | Cn1ccnc1[C@H](O)[C@@](C)(O)C(=O)NCC1CCN(c2ccc(F)cc2C#N)CC1 [Compound 2395] | 100 to 1000 nM | –
13 | CC#CCOc1cc([C@@H](C)NC(=O)[C@](C)(O)[C@@H](O)C(=O)N2Cc3cccnc3C2)ccc1-n1cccn1 [drawing 1313] | – | 1.44 nM
14 | N#Cc1cc(F)ccc1N1CCC(CNC(=O)[C@H](O)[C@@H](O)C(=O)N2C3CCC2CC3)CC1 [Compound 2094] | > 1000 nM | –
15 | O=C([C@H](O)[C@@H](O)c1cncc(-c2ccc(-c3ccccc3)cc2)n1)N1Cc2ccccc2C1 [Compound 2403] | > 1000 nM | –
16 | Cn1c(Cc2ccccc2)cnc1[C@H](O)[C@@H](O)C(=O)NCC1CCN(c2ccc(F)cc2C#N)CC1 [Compound 2365] | 100 to 1000 nM | –
17 | Cn1c([C@H](O)[C@@H](O)C(=O)NCC2CCN(c3ccc(F)cc3C#N)CC2)nc2ccccc21 [Compound 2394] | > 1000 nM | –
18 | C[C@H](c1ccc(-n2cccn2)cc1)N1CCO[C@H]([C@@H](O)C(=O)N2CCCC2c2ccccc2)C1=O (some centres unmarked) [Compound 2478] | > 1000 nM | –
19 | CNc1nc([C@H]2CCCN2C(=O)[C@H](O)[C@@H](O)C(=O)N[C@H](C)c2ccc(-n3cccn3)cc2)c(C)s1 [drawing 1315] | – | 2 nM
20 | CNc1nc([C@H]2c3ccccc3CCN2C(=O)[C@H](O)[C@@H](O)C(=O)N[C@H](C)c2ccc(-n3cccn3)cc2)cs1 [drawing 1310] | – | 1.4 nM
21 | CNc1nc([C@H]2CCCN2C(=O)[C@H](O)[C@@H](O)C(=O)N[C@H](C)c2ccc(-n3cccn3)cc2)c(S(C)(=O)=O)s1 [drawing 1294] | – | 0.38 nM
22 | C[C@@H](NC(=O)[C@H](O)[C@@H](O)C(=O)N1CCN(c2ccccc2)C(=O)C1)c1ccc(-n2cccn2)cc1 [Compound 2425] | 100 to 1000 nM | –
23 | N#Cc1cc(F)ccc1N1C[C@@H]2C(CNC(=O)[C@H](O)[C@@H](O)C(=O)N3CCCC3)[C@@H]2C1 (some centres unmarked) [Compound 2147] | 100 to 1000 nM | –
24 | O=C(NCc1ccc(-c2ccccc2OC(F)(F)F)c[n+]1[O-])[C@H](O)[C@@H](O)C(=O)N1Cc2ccccc2C1 [Compound 2348] | 100 to 1000 nM | –
25 | C[C@@H](NC(=O)[C@H](O)[C@@H](O)C(=O)N1CCC[C@@H]1c1ccn(-c2ccc(F)cc2)n1)c1ccc(-n2cccn2)cc1 [drawing 1317] | – | 2 nM
26 | O=C(NCc1ccc(-c2ccc(F)cc2OCCC2CCCCC2)cc1)[C@H](O)[C@@H](O)C(=O)N1CCCC1 [Compound 2342] | 100 to 1000 nM | –
27 | CC#CCOc1cc([C@@H](C)NC(=O)[C@H](O)[C@@H](O)C(=O)N2Cc3cccnc3C2)ccc1-n1cccn1 [drawing 1292] | – | 0.25 nM

Continued, values first:

Row | Ki [1] | Ki [2] | Structure (SMILES)
28 | < 20 nM | – | CNc1nc([C@H]2c3ccccc3CCN2C(=O)[C@H](O)[C@@H](O)C(=O)N[C@H](C)c2ccc(-n3cccn3)cc2)cs1 [Compound 2586]
29 | < 20 nM | – | O=C(NCC1CCN(c2ccc(F)cc2Br)CC1)[C@H](O)[C@@H](O)C(=O)N1Cc2ccccc2C1 [Compound 2139]
30 | < 20 nM | – | COc1cc([C@@H](C)NC(=O)[C@](C)(O)[C@@H](O)C(=O)N2Cc3cccnc3C2)ccc1-n1cccn1 [Compound 2355]
31 | < 20 nM | – | C[C@@H](NC(=O)[C@H](O)[C@@H](O)C(=O)N1CCc2cc(Cl)ccc2C1c1cc[nH]n1)c1ccc(-n2cccn2)cc1 (some centres unmarked) [Compound 2596]
32 | < 20 nM | – | C[C@@H](NC(=O)[C@](C)(O)[C@@H](O)C(=O)N1Cc2cccnc2C1)c1ccc(-n2cccn2)cc1 [Compound 2031]
33 | 100 to 1000 nM | – | C[C@@H](NC(=O)[C@H](O)[C@@H](O)C(=O)N1CC=C[C@H]1c1cccc(Cl)c1)c1ccc(-n2cccn2)cc1 [Compound 2263]
34 | 20 to 100 nM | – | C[C@@H](NC(=O)[C@](C)(O)[C@@H](O)C(=O)N1Cc2cccnc2C1)c1ccc(-n2cccc2C#N)cc1 [Compound 2354]
35 | 20 to 100 nM | – | O=C(NCc1ccc(-c2ccc(F)cc2OCC(F)(F)F)cc1)[C@H](O)[C@@H](O)C(=O)N1CCCC1 [Compound 2337]
36 | 20 to 100 nM | – | C[C@](O)(C(=O)NCC1CCN(c2ccc(F)cc2C#N)CC1)[C@@H](O)C(=O)N1Cc2ccncc2C1 [Compound 2041]
37 | 100 to 1000 nM | – | C[C@@H](NC(=O)[C@H](O)[C@@H](O)C(=O)N1CCCc2ccccc21)c1ccc(-n2cccn2)cc1 [Compound 2421]
38 | 100 to 1000 nM | – | CCOc1ncccc1-c1ccc(CNC(=O)[C@H](O)[C@@H](O)C(=O)N2CCCC2)cc1 [Compound 2335]
39 | < 20 nM | – | CC(C)Nc1nc([C@@H]2c3ccc(Cl)cc3CCN2C(=O)[C@H](O)[C@@H](O)C(=O)N[C@H](C)c2ccc(-n3cccn3)cc2)cs1 [Compound 2590]
40 | < 20 nM | – | C[C@@H](NC(=O)[C@H](O)[C@@H](O)C(=O)N1CC[C@H](O)[C@H]1c1cccc(Cl)c1)c1ccc(-n2cccn2)cc1 [Compound 2266]
41 | < 20 nM | – | C[C@@H](NC(=O)[C@H](O)[C@@H](O)C(=O)N1CCC[C@@H]1c1cccc(Cl)c1)c1ccc(-n2cccn2)cc1 [Compound 944]
42 | < 20 nM | – | CCOc1cc(F)ccc1-c1ccc(CNC(=O)[C@](C)(O)[C@@H](O)C(=O)N2Cc3cccnc3C2)cc1 [Compound 2033]
43 | 20 to 100 nM | – | C[C@@H](NC(=O)[C@H](O)[C@@H](O)C(=O)N1CC(C)(C)CC1(C)c1cccc(Cl)c1)c1ccc(-n2cccn2)cc1 (some centres unmarked) [Compound 2238]

Row | Ki [1] | Ki [2] | Structure (SMILES)
44 | 20 to 100 nM | – | O=C(NCC1CCN(c2ccc(F)cc2OCCC2CCCCC2)CC1)[C@H](O)[C@@H](O)C(=O)N1CCCC1 [Compound 2159]
45 | 20 to 100 nM | – | C[C@@H](NC(=O)[C@H](O)[C@@H](O)C(=O)N1Cc2ccc[n+]([O-])c2C1)c1ccc(-n2cccn2)cc1 [Compound 2030]
46 | < 20 nM | – | CC1(C)c2ccccc2CN1C(=O)[C@H](O)[C@@H](O)C(=O)NCC1CCN(c2ccccc2C#N)CC1 [Compound 2233]
47 | 20 to 100 nM | – | O=C(NCc1ccc(-c2ccccc2OCC2CCCC2)cc1)[C@H](O)[C@@H](O)C(=O)N1CCCC1 [Compound 2340]
48 | 20 to 100 nM | – | C[C@@H](NC(=O)[C@H](O)[C@@H](O)C(=O)N1CCc2c(cnn2C)C1)c1ccc(-n2cccn2)cc1 [Compound 2074]
49 | 20 to 100 nM | – | C[C@@H](NC(=O)[C@H](O)[C@@H](O)C(=O)N1CCc2cccnc2C1)c1ccc(-n2cccn2)cc1 [Compound 2083]
50 | < 20 nM | – | CCOc1cc(F)ccc1-c1ccc(CNC(=O)[C@H](O)[C@@H](O)C(=O)N2Cc3ccncc3C2)cc1 [Compound 2042]
51 | < 20 nM | – | CNc1nc([C@H]2CCCN2C(=O)[C@H](O)[C@@H](O)C(=O)N[C@H](C)c2ccc(-n3cccn3)cc2)c(C)s1 [Compound 2268]
52 | < 20 nM | – | C[C@@H](NC(=O)[C@H](O)[C@@H](O)C(=O)N1Cc2cccnc2C1)c1ccc(-n2cccn2)c(O)c1 [Compound 2305]
53 | < 20 nM | – | C[C@@H](NC(=O)[C@H](O)[C@@H](O)C(=O)N1C[C@H](O)C[C@H]1c1cccc(Cl)c1)c1ccc(-n2cccn2)cc1 [Compound 2265]
54 | 20 to 100 nM | – | C[C@@H](NC(=O)[C@H](O)[C@@H](O)C(=O)N1CCCCC1c1csc(N)n1)c1ccc(-n2cccn2)cc1 (some centres unmarked) [Compound 2417]
55 | < 20 nM | – | CCNc1nc([C@@H]2c3ccccc3CN2C(=O)[C@H](O)[C@@H](O)C(=O)N[C@H](C)c2ccc(-n3cccn3)cc2)cs1 [Compound 2595]
56 | 20 to 100 nM | – | O=C(NCc1ccc(-c2ccccc2)cc1)[C@H](O)[C@@H](O)C(=O)N1Cc2cccnc2C1 [Compound 2037]
57 | 20 to 100 nM | – | CC1c2cnc(N)nc2CN1C(=O)[C@H](O)[C@@H](O)C(=O)N[C@H](C)c1ccc(-n2cccn2)cc1 (some centres unmarked) [Compound 2051]
58 | < 20 nM | – | O=C(NC[C@H]1CC[C@@H](n2c(C(F)(F)F)nc3ccccc32)CC1)[C@H](O)[C@@H](O)C(=O)N1CCC[C@@H]1c1ccccc1 [Compound 2352]
59 | < 20 nM | – | C[C@@H](NC(=O)[C@H](O)[C@@H](O)C(=O)N1CCC[C@@H]1c1cn2ccccc2n1)c1ccc(-n2cccn2)cc1 [Compound 2507]
